Measured values as given in PubChem BioAssay (NCI).
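In this assay, cells in 96-well plates receive the compound at five concentrations for 48 hours. Endpoints are linearly interpolated between the surrounding concentrations. GI50 = concentration required for 50% inhibition of growth. The concentration for full growth arrest is given as TGI.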

Key:
Assay in all cases: inhibition of tumour cell growth, NCI panel, 48 h
[1] = system: K-562 leukemia
[2] = system: HS 578T breast
[3] = system: SK-MEL-28 melanoma
[4] = system: UACC-257 melanoma
[5] = system: UO-31 renal
[6] = system: CCRF-CEM leukemia
[7] = system: SK-MEL-2 melanoma
[8] = system: PC-3 prostate
[9] = system: RXF 393 renal
[10] = system: SR leukemia
[11] = system: MDA-MB-231 breast
[12] = system: SNB-19 CNS
[13] = system: HOP-62 NSCLC
[14] = system: OVCAR-3 ovarian
[15] = system: DU-145 prostate
[16] = system: SF-295 CNS
[17] = system: NCI/ADR-RES ovarian
[18] = system: SN12C renal
[19] = system: HCC-2998 colon
[20] = system: A498 renal
[21] = system: SF-268 CNS
[22] = system: LOX IMVI melanoma
[23] = system: SK-MEL-5 melanoma
[24] = system: HOP-92 NSCLC
[25] = system: OVCAR-4 ovarian
[26] = system: MALME-3M melanoma
[27] = system: OVCAR-5 ovarian
[28] = system: KM12 colon
[29] = system: HL-60(TB) leukemia
[30] = system: HCT-116 colon
[31] = system: U251 CNS
[32] = system: EKVX NSCLC
[33] = system: ACHN renal
[34] = system: IGROV1 ovarian
[35] = system: A549 NSCLC
[36] = system: UACC-62 melanoma
[37] = system: NCI-H226 lung
[38] = system: NCI-H522 lung
[39] = system: BT-549 breast
[40] = system: HCT-15 colon
[41] = system: SK-OV-3 ovarian
[42] = system: SF-539 CNS
[43] = system: OVCAR-8 ovarian
[44] = system: NCI-H23 lung
[45] = system: MCF7 breast
[46] = system: SW-620 colon
[47] = system: 786-0 renal
[48] = system: M14 melanoma
[49] = system: T-47D breast
[50] = system: COLO 205 colon
[51] = system: SNB-75 CNS
[52] = system: NCI-H460 lung
[53] = system: HT29 colon
[54] = system: MOLT-4 leukemia
[55] = system: RPMI-8226 leukemia
[56] = system: MDA-MB-435
[57] = system: TK-10 renal
[58] = system: CAKI-1 renal

## Cn1cc(-c2ccc(-c3cncc(Cl)c3N3CCC4(CCNC4=O)CC3)cc2)cn1
[1]
  GI50: 26.9 µM
  TGI: > 100 µM
[2]
  GI50: 80.1 µM
  TGI: > 100 µM
[3]
  GI50: 79.2 µM
  TGI: > 100 µM
[4]
  GI50: > 100 µM
  TGI: > 100 µM
[5]
  GI50: 29 µM
  TGI: > 100 µM
[6]
  GI50: 44.5 µM
  TGI: > 100 µM
[7]
  GI50: 24.7 µM
  TGI: > 100 µM
[8]
  GI50: 47.3 µM
  TGI: > 100 µM
[9]
  GI50: 18.2 µM
  TGI: > 100 µM
[10]
  GI50: 1.68 µM
  TGI: 21.2 µM
[11]
  GI50: > 100 µM
  TGI: > 100 µM
[12]
  GI50: > 100 µM
  TGI: > 100 µM
[13]
  GI50: 39.6 µM
  TGI: > 100 µM
[14]
  GI50: 34.3 µM
  TGI: > 100 µM
[15]
  GI50: 50.3 µM
  TGI: > 100 µM
[16]
  GI50: 66.7 µM
  TGI: > 100 µM
[17]
  GI50: 45.3 µM
  TGI: > 100 µM
[18]
  GI50: 63.2 µM
  TGI: > 100 µM
[19]
  GI50: > 100 µM
  TGI: > 100 µM
[20]
  GI50: 14.1 µM
  TGI: > 100 µM
[21]
  GI50: 61.2 µM
  TGI: > 100 µM
[22]
  GI50: 77.1 µM
  TGI: > 100 µM
[23]
  GI50: 40.3 µM
  TGI: > 100 µM
[24]
  GI50: > 100 µM
  TGI: > 100 µM
[25]
  GI50: 65.1 µM
  TGI: > 100 µM
[26]
  GI50: 66.6 µM
  TGI: > 100 µM
[27]
  GI50: > 100 µM
  TGI: > 100 µM
[28]
  GI50: 33.3 µM
  TGI: > 100 µM
[29]
  GI50: 20.4 µM
  TGI: 55.5 µM
[30]
  GI50: 24.3 µM
  TGI: > 100 µM
[31]
  GI50: 51.3 µM
  TGI: > 100 µM
[32]
  GI50: 51.9 µM
  TGI: > 100 µM
[33]
  GI50: 23 µM
  TGI: > 100 µM
[34]
  GI50: 68 µM
  TGI: > 100 µM
[35]
  GI50: 29 µM
  TGI: > 100 µM
[36]
  GI50: 60.7 µM
  TGI: > 100 µM
[37]
  GI50: 65.5 µM
  TGI: > 100 µM
[38]
  GI50: 26.4 µM
  TGI: > 100 µM
[39]
  GI50: 26 µM
  TGI: > 100 µM
[40]
  GI50: 40.1 µM
  TGI: > 100 µM
[41]
  GI50: 41.6 µM
  TGI: > 100 µM
[42]
  GI50: 27.8 µM
  TGI: > 100 µM
[43]
  GI50: 29.4 µM
  TGI: > 100 µM
[44]
  GI50: > 100 µM
  TGI: > 100 µM
[45]
  GI50: 38.5 µM
  TGI: > 100 µM
[46]
  GI50: 47.7 µM
  TGI: > 100 µM
[47]
  GI50: 14.6 µM
  TGI: > 100 µM
[48]
  GI50: 76 µM
  TGI: > 100 µM
[49]
  GI50: 25.9 µM
  TGI: > 100 µM
[50]
  GI50: 10.6 µM
  TGI: > 100 µM
[51]
  GI50: 34.8 µM
  TGI: > 100 µM
[52]
  GI50: 69.1 µM
  TGI: > 100 µM
[53]
  GI50: 16.9 µM
  TGI: > 100 µM
[54]
  GI50: 15.5 µM
  TGI: > 100 µM
[55]
  GI50: 17 µM
  TGI: 95.3 µM
[56]
  GI50: 38.7 µM
  TGI: > 100 µM

## O=C(OCc1ccc2c(Cl)cc(Cl)c(O)c2n1)N1CCN(C(=O)c2cc3cc(F)ccc3[nH]2)CC1
[1]
  GI50: 0.825 µM
  TGI: > 100 µM
[2]
  GI50: 1.13 µM
  TGI: > 100 µM
[3]
  GI50: 87 µM
  TGI: > 100 µM
[4]
  GI50: > 100 µM
  TGI: > 100 µM
[5]
  GI50: 2.59 µM
  TGI: > 100 µM
[6]
  GI50: 0.876 µM
  TGI: > 100 µM
[7]
  GI50: 3.23 µM
  TGI: > 100 µM
[8]
  GI50: 1.59 µM
  TGI: > 100 µM
[9]
  GI50: 3.03 µM
  TGI: > 100 µM
[10]
  GI50: 0.401 µM
  TGI: > 100 µM
[11]
  GI50: 1.07 µM
  TGI: > 55.6 µM
[12]
  GI50: 4.13 µM
  TGI: > 100 µM
[13]
  GI50: 1.31 µM
  TGI: > 100 µM
[14]
  GI50: 0.501 µM
  TGI: 3.7 µM
[15]
  GI50: 1.94 µM
  TGI: 18.6 µM
[16]
  GI50: 9.49 µM
  TGI: > 100 µM
[17]
  GI50: 0.331 µM
[18]
  GI50: 1.15 µM
  TGI: > 100 µM
[19]
  GI50: 3.95 µM
  TGI: > 94.6 µM
[20]
  GI50: 0.504 µM
  TGI: 5.48 µM
[21]
  GI50: 1.56 µM
  TGI: > 100 µM
[22]
  GI50: 0.453 µM
  TGI: > 100 µM
[23]
  GI50: 1.11 µM
  TGI: 3.9 µM
[24]
  GI50: 3.1 µM
  TGI: > 100 µM
[25]
  GI50: 5.37 µM
  TGI: > 100 µM
[26]
  GI50: 3.71 µM
  TGI: > 100 µM
[27]
  GI50: > 37.5 µM
  TGI: > 100 µM
[28]
  GI50: 0.58 µM
  TGI: > 41.3 µM
[29]
  GI50: 1.06 µM
  TGI: 3.53 µM
[30]
  GI50: 0.392 µM
  TGI: > 100 µM
[31]
  GI50: 2.55 µM
  TGI: > 100 µM
[32]
  GI50: > 74.9 µM
  TGI: > 100 µM
[33]
  GI50: 0.611 µM
  TGI: > 100 µM
[34]
  GI50: 1.99 µM
  TGI: > 100 µM
[35]
  GI50: 7.03 µM
  TGI: > 100 µM
[36]
  GI50: 1.28 µM
  TGI: > 100 µM
[37]
  GI50: 45.4 µM
  TGI: > 100 µM
[38]
  GI50: 0.303 µM
  TGI: > 100 µM
[39]
  GI50: 1.17 µM
  TGI: > 24 µM
[40]
  GI50: 1.14 µM
  TGI: > 100 µM
[41]
  GI50: 3.6 µM
  TGI: > 100 µM
[42]
  GI50: 0.403 µM
  TGI: 3.02 µM
[43]
  GI50: 0.551 µM
  TGI: > 100 µM
[44]
  GI50: 2.25 µM
  TGI: > 100 µM
[45]
  GI50: 0.404 µM
  TGI: > 100 µM
[46]
  GI50: 0.83 µM
  TGI: > 100 µM
[47]
  GI50: 4.3 µM
  TGI: > 100 µM
[48]
  GI50: 0.675 µM
  TGI: > 100 µM
[49]
  GI50: > 100 µM
  TGI: > 100 µM
[50]
  GI50: 38.7 µM
  TGI: > 100 µM
[51]
  GI50: 2.85 µM
  TGI: > 100 µM
[52]
  GI50: 0.918 µM
  TGI: > 100 µM
[53]
  GI50: 62.7 µM
  TGI: > 100 µM
[57]
  GI50: 99.5 µM
  TGI: > 100 µM
[54]
  GI50: 1.02 µM
  TGI: > 100 µM
[58]
  GI50: 0.905 µM
  TGI: > 100 µM
[55]
  GI50: 0.48 µM
  TGI: > 100 µM
[56]
  GI50: 0.358 µM
  TGI: 2.18 µM
